# Laboratory results taken from patent US20230085307A1, “PYRIDAZINONE COMPOUND AND HERBICIDE” (NISSAN CHEMICAL CORPORATION, priority 2019, published 2023).
# Columns and labels:
# green foxtail [1] = test: Test Example 5: herbicidal effect by foliage application, plastic box (Table 20, symbol G); format: in vivo, green foxtail (Setaria viridis); conditions: foliage application, AAH 320 g/ha, three weeks after application
# Procedure, shortened: (§1)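 Post-emergence foliar test in sterilized diluvial soil. Compound applied as water-diluted emulsion at a predetermined rate to 14-day-old plants; evaluation at three weeks.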
# persian speedwell [2] = test: Test Example 5: herbicidal effect by foliage application, plastic box (Table 20, symbol R); format: in vivo, Persian speedwell (Veronica persica); conditions: foliage application, AAH 320 g/ha, three weeks after application
# Procedure, shortened: as §1
# green foxtail [3] = test: Test Example 4: herbicidal effect by soil treatment (Table 19, symbol G); format: in vivo, green foxtail (Setaria viridis); conditions: AAH 320 g/ha
# Procedure, shortened: (§2)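 Emulsion of test compound, water-diluted to predetermined amount, sprayed on soil after sowing (seed depth ~1.5 cm, sterilized diluvial soil). Greenhouse, 25–30° C. Effect graded at three weeks post-spray.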
# lambsquarters [4] = test: Test Example 4: herbicidal effect by soil treatment (Table 19, symbol O); format: in vivo, lambsquarters (Chenopodium album); conditions: AAH 320 g/ha
# Procedure, shortened: as §2
# rice flat sedge = test: Test Example 3: herbicidal effect by foliage application, Wagner pot (Table 18, symbol E); format: in vivo, rice flat sedge (Cyperus iria); conditions: 320 g/ha
# Procedure, shortened: (§3)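 Plants were sown in alluvial soil held under 0.1–0.5 cm standing water and grown 14 days in a greenhouse at 25–30 °C. An emulsifiable formulation, water-diluted to the set dose, was then sprayed onto the foliage, and effects were scored three weeks later using previously defined criteria.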
# wild oat [5] = test: Test Example 5: herbicidal effect by foliage application, plastic box (Table 20, symbol I); format: in vivo, wild oat (Avena fatua); conditions: foliage application, AAH 320 g/ha, three weeks after application
# Procedure, shortened: as §1
# barnyard grass [6] = test: Test Example 3: herbicidal effect by foliage application, Wagner pot (Table 18, symbol H); format: in vivo, barnyard grass (Echinochloa crus-galli); conditions: 320 g/ha
# Procedure, shortened: as §3
# chickweed [7] = test: Test Example 5: herbicidal effect by foliage application, plastic box (Table 20, symbol P); format: in vivo, common chickweed (Stellaria media); conditions: foliage application, AAH 320 g/ha, three weeks after application
# Procedure, shortened: as §1
# chickweed [8] = test: Test Example 4: herbicidal effect by soil treatment (Table 19, symbol P); format: in vivo, common chickweed (Stellaria media); conditions: AAH 320 g/ha
# Procedure, shortened: as §2
# barnyard grass [9] = test: Test Example 4: herbicidal effect by soil treatment (Table 19, symbol H); format: in vivo, barnyard grass (Echinochloa crus-galli); conditions: AAH 320 g/ha
# Procedure, shortened: as §2
# velvetleaf [10] = test: Test Example 5: herbicidal effect by foliage application, plastic box (Table 20, symbol M); format: in vivo, velvetleaf (Abutilon theophrasti); conditions: foliage application, AAH 320 g/ha, three weeks after application
# Procedure, shortened: as §1
# windgrass [11] = test: Test Example 5: herbicidal effect by foliage application, plastic box (Table 20, symbol L); format: in vivo, windgrass (Apera spica-venti); conditions: foliage application, AAH 320 g/ha, three weeks after application
# Procedure, shortened: as §1
# windgrass [12] = test: Test Example 4: herbicidal effect by soil treatment (Table 19, symbol L); format: in vivo, windgrass (Apera spica-venti); conditions: AAH 320 g/ha
# Procedure, shortened: as §2
# southern crabgrass [13] = test: Test Example 5: herbicidal effect by foliage application, plastic box (Table 20, symbol F); format: in vivo, southern crabgrass (Digitaria ciliaris); conditions: foliage application, AAH 320 g/ha, three weeks after application
# Procedure, shortened: as §1
# velvetleaf [14] = test: Test Example 4: herbicidal effect by soil treatment (Table 19, symbol M); format: in vivo, velvetleaf (Abutilon theophrasti); conditions: AAH 320 g/ha
# Procedure, shortened: as §2
# Chinese sprangletop = test: Test Example 3: herbicidal effect by foliage application, Wagner pot (Table 18, symbol D); format: in vivo, chinese sprangletop (Leptochloa chinensis); conditions: 320 g/ha
# Procedure, shortened: as §3
# wild oat [15] = test: Test Example 4: herbicidal effect by soil treatment (Table 19, symbol I); format: in vivo, wild oat (Avena fatua); conditions: AAH 320 g/ha
# Procedure, shortened: as §2
# lambsquarters [16] = test: Test Example 5: herbicidal effect by foliage application, plastic box (Table 20, symbol O); format: in vivo, lambsquarters (Chenopodium album); conditions: foliage application, AAH 320 g/ha, three weeks after application
# Procedure, shortened: as §1
# redroot pigweed [17] = test: Test Example 4: herbicidal effect by soil treatment (Table 19, symbol N); format: in vivo, redroot pigweed (Amaranthus retroflexus); conditions: AAH 320 g/ha
# Procedure, shortened: as §2
# southern crabgrass [18] = test: Test Example 4: herbicidal effect by soil treatment (Table 19, symbol F); format: in vivo, southern crabgrass (Digitaria ciliaris); conditions: AAH 320 g/ha
# Procedure, shortened: as §2
# barnyard grass [19] = test: Test Example 5: herbicidal effect by foliage application, plastic box (Table 20, symbol H); format: in vivo, barnyard grass (Echinochloa crus-galli); conditions: foliage application, AAH 320 g/ha, three weeks after application
# Procedure, shortened: as §1
# blackgrass [20] = test: Test Example 4: herbicidal effect by soil treatment (Table 19, symbol J); format: in vivo, blackgrass (Alopecurus myosuroides); conditions: AAH 320 g/ha
# Procedure, shortened: as §2
# persian speedwell [21] = test: Test Example 4: herbicidal effect by soil treatment (Table 19, symbol R); format: in vivo, Persian speedwell (Veronica persica); conditions: AAH 320 g/ha
# Procedure, shortened: as §2
# Italian ryegrass [22] = test: Test Example 4: herbicidal effect by soil treatment (Table 19, symbol K); format: in vivo, Italian ryegrass (Lolium multiflorum); conditions: AAH 320 g/ha
# Procedure, shortened: as §2
# blackgrass [23] = test: Test Example 5: herbicidal effect by foliage application, plastic box (Table 20, symbol J); format: in vivo, blackgrass (Alopecurus myosuroides); conditions: foliage application, AAH 320 g/ha, three weeks after application
# Procedure, shortened: as §1
# Italian ryegrass [24] = test: Test Example 5: herbicidal effect by foliage application, plastic box (Table 20, symbol K); format: in vivo, Italian ryegrass (Lolium multiflorum); conditions: foliage application, AAH 320 g/ha, three weeks after application
# Procedure, shortened: as §1
# redroot pigweed [25] = test: Test Example 5: herbicidal effect by foliage application, plastic box (Table 20, symbol N); format: in vivo, redroot pigweed (Amaranthus retroflexus); conditions: foliage application, AAH 320 g/ha, three weeks after application
# Procedure, shortened: as §1
Structure (SMILES),"G: green foxtail, herbicidal effect (green foxtail [1])","R: persian speedwell, herbicidal effect (persian speedwell [2])","G: green foxtail, herbicidal effect rating (green foxtail [3])","O: lambsquarters, herbicidal effect rating (lambsquarters [4])","herbicidal effect on E (rice flat sedge), rating 0-5 (rice flat sedge)","I: wild oat, herbicidal effect (wild oat [5])","herbicidal effect on H (barnyard grass), rating 0-5 (barnyard grass [6])","P: chickweed, herbicidal effect (chickweed [7])","P: chickweed, herbicidal effect rating (chickweed [8])","H: barnyard grass, herbicidal effect rating (barnyard grass [9])","M: velvetleaf, herbicidal effect (velvetleaf [10])","L: windgrass, herbicidal effect (windgrass [11])","L: windgrass, herbicidal effect rating (windgrass [12])","F: southern crabgrass, herbicidal effect (southern crabgrass [13])","M: velvetleaf, herbicidal effect rating (velvetleaf [14])","herbicidal effect on D (Chinese sprangletop), rating 0-5 (Chinese sprangletop)","I: wild oat, herbicidal effect rating (wild oat [15])","O: lambsquarters, herbicidal effect (lambsquarters [16])","N: redroot pigweed, herbicidal effect rating (redroot pigweed [17])","F: southern crabgrass, herbicidal effect rating (southern crabgrass [18])",also measured
CCCC(=O)Oc1c(OC)nn(C)c(=O)c1-c1c(-c2ccc(F)cc2OC)sc2ccccc12 [1-177],5 (Herbicidal rate of 90% or more (almost completely withered)),4 (Herbicidal rate of 70% or more and less than 90%),5 (Herbicidal rate of 90% or more (almost completely withered)),2 (Herbicidal rate of 20% or more and less than 40%),4 (Herbicidal rate of 70% or more and less than 90%),3 (Herbicidal rate of 40% or more and less than 70%),4 (Herbicidal rate of 70% or more and less than 90%),5 (Herbicidal rate of 90% or more (almost completely withered)),5 (Herbicidal rate of 90% or more (almost completely withered)),3 (Herbicidal rate of 40% or more and less than 70%),4 (Herbicidal rate of 70% or more and less than 90%),4 (Herbicidal rate of 70% or more and less than 90%),0 (Herbicidal rate of 5% or less (almost no effect)),3 (Herbicidal rate of 40% or more and less than 70%),0 (Herbicidal rate of 5% or less (almost no effect)),0 (Herbicidal rate of 5% or less (almost no effect)),3 (Herbicidal rate of 40% or more and less than 70%),4 (Herbicidal rate of 70% or more and less than 90%),5 (Herbicidal rate of 90% or more (almost completely withered)),3 (Herbicidal rate of 40% or more and less than 70%),"H: barnyard grass, herbicidal effect (barnyard grass [19]): 4 (Herbicidal rate of 70% or more and less than 90%); J: blackgrass, herbicidal effect rating (blackgrass [20]): 0 (Herbicidal rate of 5% or less (almost no effect)); R: persian speedwell, herbicidal effect rating (persian speedwell [21]): 4 (Herbicidal rate of 70% or more and less than 90%); K: Italian ryegrass, herbicidal effect rating (Italian ryegrass [22]): 0 (Herbicidal rate of 5% or less (almost no effect)); J: blackgrass, herbicidal effect (blackgrass [23]): 4 (Herbicidal rate of 70% or more and less than 90%); K: Italian ryegrass, herbicidal effect (Italian ryegrass [24]): 1 (Herbicidal rate of 5% or more and less than 20%); N: redroot pigweed, herbicidal effect (redroot pigweed [25]): 5 (Herbicidal rate of 90% or more (almost completely withered))"
COc1ccc(-c2sc3ccccc3c2-c2c(O)c(OC)nn(C)c2=O)c(OC)c1 [1-180],5 (Herbicidal rate of 90% or more (almost completely withered)),4 (Herbicidal rate of 70% or more and less than 90%),0 (Herbicidal rate of 5% or less (almost no effect)),0 (Herbicidal rate of 5% or less (almost no effect)),4 (Herbicidal rate of 70% or more and less than 90%),3 (Herbicidal rate of 40% or more and less than 70%),1 (Herbicidal rate of 5% or more and less than 20%),5 (Herbicidal rate of 90% or more (almost completely withered)),4 (Herbicidal rate of 70% or more and less than 90%),0 (Herbicidal rate of 5% or less (almost no effect)),0 (Herbicidal rate of 5% or less (almost no effect)),3 (Herbicidal rate of 40% or more and less than 70%),0 (Herbicidal rate of 5% or less (almost no effect)),3 (Herbicidal rate of 40% or more and less than 70%),0 (Herbicidal rate of 5% or less (almost no effect)),0 (Herbicidal rate of 5% or less (almost no effect)),2 (Herbicidal rate of 20% or more and less than 40%),2 (Herbicidal rate of 20% or more and less than 40%),0 (Herbicidal rate of 5% or less (almost no effect)),0 (Herbicidal rate of 5% or less (almost no effect)),"H: barnyard grass, herbicidal effect (barnyard grass [19]): 1 (Herbicidal rate of 5% or more and less than 20%); J: blackgrass, herbicidal effect rating (blackgrass [20]): 0 (Herbicidal rate of 5% or less (almost no effect)); R: persian speedwell, herbicidal effect rating (persian speedwell [21]): 4 (Herbicidal rate of 70% or more and less than 90%); K: Italian ryegrass, herbicidal effect rating (Italian ryegrass [22]): 0 (Herbicidal rate of 5% or less (almost no effect)); J: blackgrass, herbicidal effect (blackgrass [23]): 3 (Herbicidal rate of 40% or more and less than 70%); K: Italian ryegrass, herbicidal effect (Italian ryegrass [24]): 3 (Herbicidal rate of 40% or more and less than 70%); N: redroot pigweed, herbicidal effect (redroot pigweed [25]): 3 (Herbicidal rate of 40% or more and less than 70%)"
